Values joined by “and” are separate entries in the source; they are usually repeats but may differ in a detail not shown here. Equal entries are not always repeated. Toxic doses and inconclusive results are not listed. Rule for the calls: active = survival T/C of 150% or more; inactive = T/C below 125% in these data.
System: P388 leukemia ip, CD2F1 mice, survival T/C
Assay: NCI In Vivo Anticancer Drug Screen. Data for tumor model P388 Leukemia (intraperitoneal) in CD2F1 (CDF1) mice
Conditions: endpoint: median survival time, higher = longer survival
In short: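 Mice carrying the transplanted tumor received test compound or vehicle. Survival was recorded in each group, and the value is the treated-group measurement divided by that of the vehicle-treated control group.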

[1] = dose: 50.0 mg/kg/injection, schedule: Q01DX009 (ip), vehicle: other
[2] = dose: 100.0 mg/kg/injection, schedule: Q01DX009 (ip), vehicle: other
[3] = dose: 200.0 mg/kg/injection, schedule: Q01DX009 (ip), vehicle: other
[4] = dose: 50.0 mg/kg/injection, schedule: Q01DX009 (ip), vehicle: saline with Tween-80
[5] = dose: 100.0 mg/kg/injection, schedule: Q01DX009 (ip), vehicle: saline with Tween-80
[6] = dose: 200.0 mg/kg/injection, schedule: Q01DX009 (ip), vehicle: saline with Tween-80

Measured: T/C

O=CC1=CSC(=C2SC=CS2)S1
inactive: dose: 15.0 mg/kg/injection, schedule: Q01DX005 (ip), vehicle: Klucel + Tween-80 95 % of control | dose: 30.0 mg/kg/injection, schedule: Q01DX005 (ip), vehicle: Klucel + Tween-80 87 % of control | dose: 60.0 mg/kg/injection, schedule: Q01DX005 (ip), vehicle: Klucel (hydroxypropylcellulose) (HPC) 101 % of control | dose: 60.0 mg/kg/injection, schedule: Q01DX005 (ip), vehicle: Klucel + Tween-80 106 % of control

COc1ccc2sc(C)cc(=O)c2c1
inactive: dose: 50.0 mg/kg/injection, schedule: Q01DX009 (ip), vehicle: saline + Tween-80 + alcohol 106 % of control | dose: 100.0 mg/kg/injection, schedule: Q01DX009 (ip), vehicle: saline + Tween-80 + alcohol 109 % of control | dose: 200.0 mg/kg/injection, schedule: Q01DX009 (ip), vehicle: saline + Tween-80 + alcohol 109 % of control

Cc1cccc(NC(=O)NC2CCCC(C)C2)c1 (configuration not stated)
inactive: dose: 50.0 mg/kg/injection, schedule: Q01DX009 (ip), vehicle: saline 98 % of control | dose: 100.0 mg/kg/injection, schedule: Q01DX009 (ip), vehicle: saline 93 % of control | dose: 200.0 mg/kg/injection, schedule: Q01DX009 (ip), vehicle: saline 91 % of control

O=C(O)C1CCC=CCC1
inactive: [1] 100 % of control | [2] 104 % of control | [3] 100 % of control

CCN(CCO)CCNc1ccc(C)c2sc3cc(OC)ccc3c(=O)c12
inactive: dose: 50.0 mg/kg/injection, schedule: Q01DX005 (ip), vehicle: saline with Tween-80 102 % of control and 103 % of control and 107 % of control | dose: 100.0 mg/kg/injection, schedule: Q01DX005 (ip), vehicle: saline with Tween-80 106 % of control and 112 % of control and 117 % of control | dose: 200.0 mg/kg/injection, schedule: Q01DX005 (ip), vehicle: saline with Tween-80 103 % of control and 119 % of control | dose: 400.0 mg/kg/injection, schedule: Q01DX005 (ip), vehicle: saline with Tween-80 115 % of control

O=C(Cc1nc(-c2ccc(Cl)cc2)no1)c1ccccc1
inactive: [4] 91 % of control | [5] 87 % of control

NC(=O)/C=C/C(=O)c1c(Cl)cccc1Cl
inactive: dose: 1.56 mg/kg/injection, schedule: Q01DX009 (ip), vehicle: saline with Tween-80 113 % of control | dose: 3.13 mg/kg/injection, schedule: Q01DX009 (ip), vehicle: saline with Tween-80 111 % of control | dose: 6.25 mg/kg/injection, schedule: Q01DX009 (ip), vehicle: saline with Tween-80 94 % of control | dose: 12.5 mg/kg/injection, schedule: Q01DX009 (ip), vehicle: saline with Tween-80 86 % of control and 87 % of control

Cn1c(N)c(N=Nc2ccccc2Cl)c(=O)n(C)c1=O
inactive: [4] 104 % of control | [5] 99 % of control | [6] 95 % of control

CSCSCC(N)CO (configuration not stated)
inactive: dose: 25.0 mg/kg/injection, schedule: Q01DX005 (ip), vehicle: water 95 % of control | dose: 50.0 mg/kg/injection, schedule: Q01DX005 (ip), vehicle: water 100 % of control | dose: 100.0 mg/kg/injection, schedule: Q01DX005 (ip), vehicle: water 89 % of control | dose: 200.0 mg/kg/injection, schedule: Q01DX005 (ip), vehicle: water 95 % of control | dose: 400.0 mg/kg/injection, schedule: Q01DX005 (ip), vehicle: water 89 % of control

CCOC(=O)C1=NN2c3ccccc3OCC2C1 (configuration not stated)
inactive: dose: 50.0 mg/kg/injection, schedule: Q04DX003 (ip), vehicle: suspension in saline 99 % of control | dose: 100.0 mg/kg/injection, schedule: Q04DX003 (ip), vehicle: suspension in saline 101 % of control | dose: 200.0 mg/kg/injection, schedule: Q04DX003 (ip), vehicle: suspension in saline 100 % of control

O=C1c2cc(I)ccc2NC(O)c2cccn21 (configuration not stated)
inactive: dose: 0.1 mg/kg/injection, schedule: Q01DX005 (ip), vehicle: water 93 % of control | dose: 0.2 mg/kg/injection, schedule: Q01DX005 (ip), vehicle: water 93 % of control | dose: 0.4 mg/kg/injection, schedule: Q01DX005 (ip), vehicle: water 99 % of control | dose: 0.8 mg/kg/injection, schedule: Q01DX005 (ip), vehicle: water 100 % of control | dose: 1.6 mg/kg/injection, schedule: Q01DX005 (ip), vehicle: water 96 % of control | dose: 5.0 mg/kg/injection, schedule: Q01DX005 (ip), vehicle: distilled water + Tween-80 94 % of control | dose: 10.0 mg/kg/injection, schedule: Q01DX005 (ip), vehicle: distilled water + Tween-80 100 % of control | dose: 20.0 mg/kg/injection, schedule: Q01DX005 (ip), vehicle: distilled water + Tween-80 99 % of control | dose: 40.0 mg/kg/injection, schedule: Q01DX005 (ip), vehicle: distilled water + Tween-80 92 % of control | dose: 80.0 mg/kg/injection, schedule: Q01DX005 (ip), vehicle: distilled water + Tween-80 93 % of control

CC(C)(C(=O)O)n1c(-c2ccccc2)c(-c2ccccc2)oc1=O
inactive: dose: 8.75 mg/kg/injection, schedule: Q01DX005 (ip), vehicle: Klucel (hydroxypropylcellulose) (HPC) 106 % of control | dose: 17.5 mg/kg/injection, schedule: Q01DX005 (ip), vehicle: Klucel (hydroxypropylcellulose) (HPC) 106 % of control | dose: 35.0 mg/kg/injection, schedule: Q01DX005 (ip), vehicle: Klucel (hydroxypropylcellulose) (HPC) 106 % of control

Nc1ncnc2ccccc12
inactive: dose: 12.5 mg/kg/injection, schedule: Q01DX009 (ip), vehicle: Klucel (hydroxypropylcellulose) (HPC) 107 % of control | dose: 25.0 mg/kg/injection, schedule: Q01DX009 (ip), vehicle: Klucel (hydroxypropylcellulose) (HPC) 89 % of control | dose: 50.0 mg/kg/injection, schedule: Q01DX009 (ip), vehicle: Klucel (hydroxypropylcellulose) (HPC) 108 % of control and 89 % of control | dose: 100.0 mg/kg/injection, schedule: Q01DX009 (ip), vehicle: Klucel (hydroxypropylcellulose) (HPC) 108 % of control

Fc1ccccc1CSc1ncnc2nc[nH]c12
inactive: [4] 100 % of control | [5] 100 % of control | dose: 100.0 mg/kg/injection, schedule: Q04DX003 (ip), vehicle: saline with Tween-80 104 % of control | dose: 132.0 mg/kg/injection, schedule: Q04DX003 (ip), vehicle: saline with Tween-80 100 % of control | [6] 100 % of control

N/C(=N\C(=O)OCc1ccccc1)N(CCCC(NC(=O)OCc1ccccc1)C(=O)O)C(=O)OCc1ccccc1 (configuration not stated)
inactive: dose: 60.0 mg/kg/injection, schedule: Q01DX005 (ip), vehicle: saline with Tween-80 104 % of control | dose: 120.0 mg/kg/injection, schedule: Q01DX005 (ip), vehicle: saline with Tween-80 87 % of control | dose: 240.0 mg/kg/injection, schedule: Q01DX005 (ip), vehicle: saline with Tween-80 88 % of control

CC(CO)CC(C)(C)C (configuration not stated)
inactive: dose: 25.0 mg/kg/injection, schedule: Q01DX005 (ip), vehicle: saline 101 % of control | dose: 50.0 mg/kg/injection, schedule: Q01DX005 (ip), vehicle: saline 108 % of control | dose: 100.0 mg/kg/injection, schedule: Q01DX005 (ip), vehicle: saline 104 % of control | dose: 200.0 mg/kg/injection, schedule: Q01DX005 (ip), vehicle: saline 109 % of control

Cc1cc(=O)c2c(ccc3[nH]c(-c4ccco4)nc32)[nH]1
inactive: dose: 100.0 mg/kg/injection, schedule: Q01DX001 (ip), vehicle: saline with Tween-80 94 % of control | dose: 200.0 mg/kg/injection, schedule: Q01DX001 (ip), vehicle: saline with Tween-80 100 % of control | dose: 400.0 mg/kg/injection, schedule: Q01DX001 (ip), vehicle: saline with Tween-80 92 % of control

COc1ccc2c(c1)C(=O)C1(CC2)OC1c1cccnc1 (configuration not stated)
inactive: dose: 12.5 mg/kg/injection, schedule: Q01DX009 (ip), vehicle: other 110 % of control | dose: 25.0 mg/kg/injection, schedule: Q01DX009 (ip), vehicle: other 115 % of control | [1] 100 % of control and 117 % of control | [2] 115 % of control and 117 % of control | [3] 94 % of control | dose: 400.0 mg/kg/injection, schedule: Q01DX009 (ip), vehicle: other 99 % of control

Source: PubChem BioAssay AID330 (DTP/NCI, 2004)
